Data from patent US6350751B1, “Therapeutic agents” (Pfizer Inc., priority 1999, dated 2002).

Experiments:
[1] = investigation of hydrate and polymorph formation of salts; assay type: physicochemical; conditions: for formation of crystalline hydrates: under a range of conditions
From the text: Hydrated salts can provide particular issues in processing, especially during for example the milling and/or drying stages. It has been disclosed that the tendency of organic molecules to hydrate can be predicted from their molecular structure, “Hydration in organic crystals: prediction from molecular structure”, Desiraju, Gautam R. Sch. Chem., Univ. Hyderabad, Hyderabad, 500 134, India. J. Chem. Soc., Chem. Commun. (1991), Issue 6, 426-8. CODEN: JCCCAT; ISSN: 0022-4936. (EN) CAN 114:237859. […] Several of the salts investigated form hydrates.
(§1) The problem of selecting a pharmaceutically acceptable salt form for 3-ethyl-5-[5-(4-ethylpiperazin-1-ylsulphonyl)-2-(2-methoxyethoxy) pyridin-3-yl]-2-(pyridin-2-yl)methyl-2,6-dihydro-7H-pyrazolo[4,3-d]pyrimidin-7-one has been solved by the surprising finding that the anhydrous para-toluene sulphonate salt of formula (I) meets the above criteria for a pharmaceutically acceptable salt. […] This is particularly surprising as initial predictions would indicate that the toslyate salt would form a hydrate, especially given the fact that the besylate salt and other salts investigated hydrated as predicted.
4-{6-Ethoxy-5-[3-ethyl-6,7-dihydro-7-oxo-2-(2-pyridylmethyl)-2H-pyrazolo[4,3-d]pyrimidin-5-yl]-3-pyridylsulfonyl}1-ethylpiperazine (100 g, 0.16 mol) was heated in 2-butanone/6.0% water (600 mL) to 50° C. yielding a pale yellow solution. The reaction mixture was heated to azetropically distil of 160 ml of solvent to remove water. The distilled solution was warmed to 60° C. and the acid solution of p-toluenesulfonic acid monohydrate (31.11 g, 0.16 mol) dissolved in 2-butanone (140 mL) was added over an hour. During the addition of the acid slow crystallisation was observed. The reaction mixture was slowly cooled from 60° C. to 0-5° C. over three hours, and stirred for a further hour, then filtered off the solid, washed with 2-butanone (200 mL) and dried under vacuum at 50° C. to afford the title compound (116 g, 93.7%) as a white solid. Mpt 240° C. (DMSOd6): 1.20 (6H, m), 2.23 (3H, st), 2.75 (2H, m), 2.97 (2H, q), 3.18 (4H, m), 3.35 (3H, s), 3.55 (2H, m), 3.68 (2H, m), 3.83 (2H, m), 4.59 (2H, m), 5.70 (2H, s), 7.08 (2H, d), 7.20 (1H, d), 7.34 (1H, m), 7.43 (2H, d), 7.80 (1H, m), 8.35 (1H, d), 8.70 (1H, d), 8.74 (1H, d). […] Mpt quoted +/−5° C. preferably +/−2° C. […] Additional experiments have shown that on re-slurrying in a mixture of methyl ethyl ketone and water these further polymorphs can be converted to the compound of Example 1.

[2] = stability of the salt (dosage form, drying and milling, drug substance); assay type: physicochemical
From the text: as §1

CCc1c2nc(-c3cc(S(=O)(=O)N4CCN(CC)CC4)cnc3OCCOC)[nH]c(=O)c2nn1Cc1ccccn1 [Example 1]
formation of crystalline hydrates [1]: does not appear to form crystalline hydrates | further polymorphs detected via differential scanning calorimetry (DSC) ([1]; under certain conditions, convertible to Example 1 form by re-slurrying in methyl ethyl ketone and water): at least two further polymorphs | drug substance stability profile [2]: desirable drug substance stability profile | physical dosage form stability [2]: good physical dosage form stability | stability during drying and milling processes [2]: demonstrates stability during drying and milling processes

CCc1c2nc(-c3cc(S(=O)(=O)N4CCN(CC)CC4)cnc3OCCOC)[nH]c(=O)c2nn1Cc1ccccn1.O=S(=O)(O)c1ccccc1 [besylate salt, besylate salt of 3-ethyl-5-[5-(4-ethylpiperazin-1-ylsulphonyl)-2-(2-methoxyethoxy)pyridin-3-yl]-2-(pyridin-2-yl)methyl-2,6-dihydro-7H-pyrazolo [4,3-d]pyrimidin-7-one, reference compound]
number of anhydrous polymorphs [1]: at least 5 | formation of crystalline hydrates [1]: a hydrated polymorph of the besylate salt is indeed formed
